# In US6998258B1, “L-pantolactone-hydrolase and a method for producing D-pantolactone” (BASF Aktiengesellschaft, priority 1999, dated 2006):
# Where two headings read alike, the source gives them in different places. Square brackets hold non-standard residues; d marks the D form. Peptide text beside a SMILES is read from it. * marks the point of attachment. Sta = CC(C)C[C@H](N)[C@@H](O)CC(=O)O; Isovaleryl = CC(C)CC(=O)*
# Experiments:
# [1] = test system: L-pantolactone hydrolase from Lu681; assay: Optical lipase assay with resorufin ester in microtiter plate; type: biochemical, Burkholderia caryophylli; settings: Lu681 enzyme, 60 to 482 U/l
# [2] = test system: L-pantolactone hydrolase from Lu681; assay: Substrate specificity of purified L-pantolactone hydrolase from Lu681 (HPLC); type: biochemical, Burkholderia caryophylli
# [3] = test system: L-pantolactone hydrolase from Lu5351; assay: Substrate specificity of purified L-pantolactone hydrolase from Lu5351 (HPLC); type: biochemical, Agrobacterium radiobacter
# [4] = test system: L-pantolactone hydrolase from Agrobacterium radiobacter Lu5351; assay: Inhibition and activation by added substances, standard assay, Lu5351 enzyme; type: biochemical
# [5] = test system: L-pantolactone hydrolase from Burkholderia caryophylli Lu681; assay: Inhibition and activation by added substances, standard assay, Lu681 enzyme; type: biochemical
# D-pantolactone hydrolase = settings: cited from earlier work
# [6] = test system: recombinant 681 lactonase; type: biochemical, Burkholderia caryophylli
# [7] = added substance 1 mM, 150 mM L-pantolactone, 1 h, 30° C., vs no addition
# [8] = substrate 2.5 mN, 0.1 U/ml enzyme, 150 mM Pipes pH 6.8
# [9] = added substance 0.1%, vs no addition
# [10] = substrate 150 mN, 0.1 U/ml enzyme, 150 mM Pipes pH 6.8
# [11] = substrate 10 mN, 0.1 U/ml enzyme, 150 mM Pipes pH 6.8
# [12] = substrate 50 mN, 0.1 U/ml enzyme, 150 mM Pipes pH 6.8
molecule,measurement,setting,value
"CCCCCCCCCCCCOCC(COC(=O)CCCC(=O)Oc1ccc2nc3ccc(=O)cc-3oc2c1)OCCCCCCCCCCCC (racemic) [1,2-O-Dilauryl-rac-glycero-3-glutaric acid resorufin ester]",lipase activity as share of the L-pantolactone hydrolase activity,[1],about 0.05%
same,Activity,[2],(+) (key: ++: >50 U/l; +: >5 U/l; (+): >0.5 U/l; −: <0.5 U/l)
same,Activity,[3],(+) (key: ++: >50 U/l; +: >5 U/l; (+): >0.5 U/l; −: <0.5 U/l)
"O[C@H](CS)[C@H](O)CS (racemic) [DTT, Dithiothreitol]",Relative Activity,[4]; [7],106%
same,Relative Activity,[5]; [7],99%
O=C1Cc2cc(O)ccc2O1 [5-Hydroxy-2-coumaranone],Activity,[2]; [8],+ (+: >5 U/l)
CC#N [Acetonitrile],Relative Activity,[5],119%
"C[C@H](CCC(=O)NCCC[N+](C)(C)CCCS(=O)(=O)[O-])[C@H]1CC[C@H]2[C@@H]3[C@H](O)C[C@@H]4C[C@H](O)CC[C@]4(C)[C@H]3C[C@H](O)[C@]12C [CHAPS, ([3-Cholamidopropyl]-dimethylammonio)-1-propane-sulfonate]",Relative Activity,[4]; [9],100%
same,Relative Activity,[5]; [9],104%
[Ca+2].[Cl-].[Cl-] [CaCl2],Relative Activity,[4],105%
same,Relative Activity,[5],101%
[Cd+2] [Cd^2+],inhibition of the enzyme,D-pantolactone hydrolase,inhibited
O=C(O)CC(O)(CC(=O)O)C(=O)O [Citric acid],Relative Activity,"[5]; added substance 30 mM, pH 6.4, vs no addition",97%
[Cu+2] [Cu^2+],inhibition of the enzyme,D-pantolactone hydrolase,inhibited
O=C1OC(C(O)CO)C(O)C1O [D-(−)-Gulono-γ-lactone],Activity,[3]; pH 6.8,++ (key: ++: >50 U/l; +: >5 U/l; (+): >0.5 U/l; −: <0.5 U/l)
O=C1OC(C(O)CO)C(O)C1O [D-Galactono-γ-lactone],Activity,[2]; pH 6.8,+ (key: ++: >50 U/l; +: >5 U/l; (+): >0.5 U/l; −: <0.5 U/l)
same,Activity,[3]; pH 6.8,++ (key: ++: >50 U/l; +: >5 U/l; (+): >0.5 U/l; −: <0.5 U/l)
CC1(C)COC(=O)C1O [D-Pantolactone],Activity,[2]; [10],− (−: <0.5 U/l)
same,type of inhibition,[6],competitive inhibition
same,Activity,[3]; [10],(+) ((+): >0.5 U/l)
O=C1CCc2ccccc2O1 [Dihydrocumarin],Activity,[3]; pH 6.8,+ (key: ++: >50 U/l; +: >5 U/l; (+): >0.5 U/l; −: <0.5 U/l)
"O=C(O)CN(CCN(CC(=O)O)CC(=O)O)CC(=O)O [EDTA, Ethylenediaminetetraacetic acid]",Relative Activity,[4]; [7],97%
same,Relative Activity,[5]; [7],97%
same,inhibition of the enzyme,"D-pantolactone hydrolase; U.S. Pat. No. 5,372,940",inhibited
CCOC(=O)C(C)O (stereo not drawn) [Ethyl (L)(−)-lactate],Activity,[2]; [10],++ (++: >50 U/l)
same,Activity,[3]; [10],++ (++: >50 U/l)
CCOC(=O)[C@@H](C)O [Ethyl D(+)-lactate],Activity,[2]; [10],+ (+: >5 U/l)
same,Activity,[3]; [10],+ (+: >5 U/l)
[Cl][Fe][Cl] [FeCl2],Relative Activity,[4],108%
same,Relative Activity,[5],104%
OO [H2O2],Relative Activity,[5],95%
[Cl][Hg][Cl] [HgCl2],Relative Activity,[4],170%
same,Relative Activity,[5],133%
[Hg+2] [Hg^2+],inhibition of the enzyme,D-pantolactone hydrolase,inhibited
O=C1Nc2ccccc2C1=O [Isatin],Activity,[2]; [11],+ (+: >5 U/l)
same,Activity,[3]; [11],(+) ((+): >0.5 U/l)
CC(C)O [Isopropanol],Relative Activity,"[5]; added substance 10%, vs no addition",93%
[Cl-].[K+] [KCl],Relative Activity,[5],99%
O=C1OC(C(O)CO)C(O)C1O [L-(+)-Gulono-γ-lactone],Activity,[2]; [10],+ (+: >5 U/l)
same,Activity,[3]; [10],++ (++: >50 U/l)
O=C1O[C@H]([C@@H](O)CO)[C@@H](O)[C@@H]1O [L-Galactono-γ-lactone],Activity,[2]; pH 6.8,++ (key: ++: >50 U/l; +: >5 U/l; (+): >0.5 U/l; −: <0.5 U/l)
same,Activity,[3]; pH 6.8,++ (key: ++: >50 U/l; +: >5 U/l; (+): >0.5 U/l; −: <0.5 U/l)
CO [MeOH],Relative Activity,[5],100%
[Cl-].[Cl-].[Mg+2] [MgCl2],Relative Activity,[4],114%
same,Relative Activity,[5],99%
[Cl][Mn][Cl] [MnCl2],Relative Activity,[5],100%
Cl.N [NH4Cl],Relative Activity,[5],100%
[Cl][Ni][Cl] [NiCl2],Relative Activity,[5],96%
O=S(=O)(F)Cc1ccccc1 [PMSF],Relative Activity,[5],113%
CC(C)CC(=O)N[C@H](C(=O)N[C@H](C(=O)N[C@@H](CC(C)C)[C@@H](O)CC(=O)N[C@@H](C)C(=O)N[C@@H](CC(C)C)[C@@H](O)CC(=O)O)C(C)C)C(C)C [Pepstatin] (Isovaleryl-VV[Sta]A[Sta]-OH),Relative Activity,[5]; [7],117%
CC1(C)COC(=O)[C@H]1O [S-Pantolactone],Activity,[2]; pH 6.8,++ (key: ++: >50 U/l; +: >5 U/l; (+): >0.5 U/l; −: <0.5 U/l)
same,Activity,[3]; pH 6.8,++ (key: ++: >50 U/l; +: >5 U/l; (+): >0.5 U/l; −: <0.5 U/l)
"CCCCCCCCCCCCOS(=O)(=O)[O-].[Na+] [SDS, Sodium dodecyl sulfate]",Relative Activity,"[4]; added substance 1%, vs no addition, sulfate",74%
same,Relative Activity,"[5]; added substance 1%, vs no addition",102%
[Cl-].[Cl-].[Zn+2] [ZnCl2],Relative Activity,[4],99%
same,Relative Activity,[5],113%
c1cnc2c(c1)ccc1cccnc12 [o-Phenanthroline],Relative Activity,[5],95%
"O=S(=O)(O)c1cc[c]([Hg][Cl])cc1 [pCMBS, p-Chloromercuribiphenylsulfonic [sic] acid]",Relative Activity,[4],112%
same,Relative Activity,[5],108%
CC(=O)Oc1cccc2ccccc12 [α-Naphthyl acetate],Activity,[2]; [8],(+) ((+): >0.5 U/l)
same,Activity,[3]; [8],(+) ((+): >0.5 U/l)
O=C1CCCO1 [γ-Butyrolactone],Activity,[2]; pH 6.8,+ (key: ++: >50 U/l; +: >5 U/l; (+): >0.5 U/l; −: <0.5 U/l)
same,Activity,[3]; pH 6.8,++ (key: ++: >50 U/l; +: >5 U/l; (+): >0.5 U/l; −: <0.5 U/l)
CC1CCC(=O)O1 (stereo not shown) [γ-Valerolactone],Activity,[2]; pH 6.8,+ (key: ++: >50 U/l; +: >5 U/l; (+): >0.5 U/l; −: <0.5 U/l)
same,Activity,[3]; pH 6.8,++ (key: ++: >50 U/l; +: >5 U/l; (+): >0.5 U/l; −: <0.5 U/l)
CCCCC1CCCC(=O)O1 (stereo not shown) [δ-Nonalactone],Activity,[2]; pH 6.8,+ (key: ++: >50 U/l; +: >5 U/l; (+): >0.5 U/l; −: <0.5 U/l)
same,Activity,[3]; pH 6.8,++ (key: ++: >50 U/l; +: >5 U/l; (+): >0.5 U/l; −: <0.5 U/l)
O=C1CCCCO1 [δ-Valerolactone],Activity,[2]; [12],+ (+: >5 U/l)
same,Activity,[3]; [12],++ (++: >50 U/l)
O=C1CCCCCO1 [ε-Caprolactone],Activity,[2]; pH 6.8,++ (key: ++: >50 U/l; +: >5 U/l; (+): >0.5 U/l; −: <0.5 U/l)
same,Activity,[3]; pH 6.8,++ (key: ++: >50 U/l; +: >5 U/l; (+): >0.5 U/l; −: <0.5 U/l)
CoCl2,Relative Activity,[5],97%
Triton,Relative Activity,[5],104%
